Experimental data reported in ChEMBL document CHEMBL3301472, “MMV Malaria Box HIV and cytotoxicity screening”.

Key:
Type in all cases: toxicity, cell-based
[1] = MMV: MTT Cytotoxicity Assay Day 3 pi, U87-CD4-CCR5 cells, % cell death @ 5mM compound; conditions: human, u87-cd4-ccr5, 5000 µM
[2] = MMV: MTT Cytotoxicity Assay Day 3 pi, U87-CD4-CXCR4 cells, % cell death @ 5mM compound; conditions: human, u87-cd4-cxcr4, 5000 µM
[3] = MMV: MTT Cytotoxicity Assay Day 7 pi of Assay #6 (compound washed out Day 1 pi), U87-CD4-CCR5 cells, % cell death @ 5mM compound; conditions: human, u87-cd4-ccr5, 5000 µM
[4] = MMV: MTT Cytotoxicity Assay Day 7 pi of Assay #7 (compound washed out Day 1 pi), U87-CD4-CXCR4 cells, % cell death @ 5mM compound; conditions: human, u87-cd4-cxcr4, 5000 µM
[5] = MMV: MTT Cytotoxicity Assay Day 7 pi of Assay #10 (NO washout), U87-CD4-CCR5 cells, % cell death @ 5mM compound; conditions: human, u87-cd4-ccr5, 5000 µM
[6] = MMV: MTT Cytotoxicity Assay Day 7 pi of Assay #11 (NO washout), U87-CD4-CXCR4 cells, % cell death @ 5mM compound; conditions: human, u87-cd4-cxcr4, 5000 µM

Row | SMILES | % Cell Death [1] | % Cell Death [2] | % Cell Death [3] | % Cell Death [4] | % Cell Death [5] | % Cell Death [6]
1 | COc1ccc(-c2cc3c(nn2)-c2ccccc2C3=O)cc1 | 71 | 49 | 30 | 13 | 75 | 101
2 | COc1ccc2c(c1)C1(Nc3ccccc3-c3nc4ccccc4n31)C(=O)N2 (centres undefined) | -75 | 13 | -9 | -24 | 29 | 9
3 | CCOc1c(Cl)cc(CNCC(O)c2ccccc2)cc1OC (centres undefined) | 14 | 21 | 20 | -17 | 2 | -40
4 | COc1ccc2nc(C)cc(Nc3ccccc3O)c2c1 | 5 | 30 | 14 | -12 | 6 | -34
5 | CCOc1ccccc1CN1CCc2nc3cc(C(C)(C)C)nn3c(O)c2C1 | 100 | 21 | -7 | 3 | 95 | 98
6 | Cc1cc(N2CCCC2)nc(Nc2ccc(NC(=O)CCc3ccccc3)cc2)n1 | 14 | 30 | 20 | -12 | 0 | -21
7 | CC(C)(C)CC(C)(C)NCC(O)COc1ccc(Cl)cc1Cl (centres undefined) | -7 | 39 | -12 | -31 | -1 | 8
8 | O=C1c2ccccc2-c2nnc(-c3ccc(Br)cc3)cc21 | 2 | 16 | 1 | 4 | 24 | -24
9 | Cc1nc2ccccc2c(O)c1CC=C(Cl)Cl | 19 | 30 | -2 | 20 | 26 | -3
10 | COCCNCC(O)Cn1c2ccc(Cl)cc2c2cc(Cl)ccc21 (centres undefined) | 29 | 30 | 14 | -16 | 28 | 15
11 | FC(F)(F)c1cccc(Nc2nc3ccccc3nc2Nc2cccc(C(F)(F)F)c2)c1 | -15 | 15 | 15 | 3 | 25 | -12
12 | COc1ccc2nc(C)cc(Nc3ccc(Cl)cc3)c2c1 | 106 | 100 | 103 | 90 | 121 | 117
13 | COc1ccc(CN2CCCC(C(=O)c3ccc(C(F)(F)F)cc3)C2)c(O)c1 (centres undefined) | 107 | 89 | 104 | 97 | 105 | 109
14 | O=C(NC1CCCCC1)C(c1cccs1)N(CCc1ccccc1)C(=O)c1ccco1 (centres undefined) | 93 | 54 | 90 | 61 | 90 | 97
15 | COc1ccc(C(=O)NC(c2ccc(Cl)cc2Cl)c2cc(Cl)c3cccnc3c2O)cc1 (centres undefined) | 42 | 58 | 1 | 18 | 84 | 102
16 | Nc1ccc(-c2nc3cc(Cc4ccc5[nH]c(-c6ccc(N)cc6)nc5c4)ccc3[nH]2)cc1 | 88 | 57 | 69 | 82 | 98 | 110
17 | CN1CCN(c2c3c(c(C#N)c4nc5ccccc5n24)CCC3)CC1 | -3 | -10 | 1 | -15 | 8 | 16
18 | N=c1c2ccccc2nnn1-c1cccc(C(F)(F)F)c1 | 106 | 99 | 68 | 86 | 101 | 112
19 | COc1cc(-c2nc(-c3ccc(Sc4ccccc4)cc3)c(-c3ccccc3)[nH]2)cc(OC)c1O | 18 | 29 | 5 | -13 | 33 | -41
20 | O=c1cc(NC2CCN(CCCc3ccccc3)CC2)c2cc(Cl)ccc2o1 | 16 | 19 | -6 | 37 | 31 | -41

Row | SMILES | % Cell Death [1] | % Cell Death [2] | % Cell Death [3] | % Cell Death [4] | % Cell Death [5] | % Cell Death [6]
21 | CCN(CC)CCNc1ncnc2c1[nH]c1ccc(Br)cc12 | -7 | 24 | -1 | -18 | 15 | -18
22 | CCOc1ccc(-n2cc(-c3ccccc3)c3c(SCc4cc(C)ccc4C)ncnc32)cc1 | 3 | 29 | 11 | -9 | -1 | 11
23 | CC1CCN(Cc2c(O)ccc3cc(-c4nc5ccccc5s4)c(=O)oc23)CC1 | 12 | 33 | 16 | -13 | 30 | 9
24 | O=C1c2ccccc2C2=Nc3ccccc3SC(c3cccc(F)c3)C12 (centres undefined) | 11 | 20 | -3 | 28 | 7 | 4
25 | O=C(Nc1ccc(-c2nc3cc4ccccc4cc3[nH]2)cc1)c1cccc(Br)c1 | 16 | 42 | 13 | -24 | 7 | -33
26 | COc1cc(SC)ccc1C(=O)N1CCCC(C)C1 (centres undefined) | 9 | 28 | 12 | -26 | -5 | -41
27 | COc1ccc(N2CCN(C(CNC(=O)CC(C)(C)C)c3ccc4c(c3)OCO4)CC2)cc1 (centres undefined) | -2 | 38 | 6 | 22 | 44 | 37
28 | COc1cccc(C(=O)NC(c2ccc(C)cc2)c2cc(Cl)c3cccnc3c2O)c1 (centres undefined) | 88 | 68 | 23 | -4 | 26 | -24
29 | O=C(O)C(=O)O.Oc1ccc(Br)cc1CN1CCN(Cc2cccc(F)c2)CC1 | 107 | 101 | 94 | 86 | 103 | 112
30 | CCOC(=O)C1(Cc2ccccc2)CCN(Cc2cccc(OC)c2O)CC1 | 0 | 29 | 15 | -16 | 21 | -36
31 | Oc1ccc(C(=C(Cl)Cl)c2ccc(O)cc2)cc1 | 80 | 75 | -14 | 36 | 84 | 103
32 | Clc1ccc2[nH]c3c(NCCCN4CCOCC4)ncnc3c2c1 | 110 | 100 | 105 | 91 | 141 | 118
33 | COc1ccc(C(=O)NC(c2ccccc2Cl)c2cc(Cl)c3cccnc3c2O)cc1 (centres undefined) | 50 | 81 | 23 | 3 | 11 | 6
34 | COc1cc2c(cc1OC)C1=NNC(=O)C1=NC(C)(C)C2 | 107 | 100 | 101 | 95 | 106 | 98
35 | CCCCCCc1cc(O)c2c3c(c(=O)oc2c1)CCC(C)C3 (centres undefined) | 16 | 20 | 16 | 16 | 26 | 9
36 | CC1=C(CC(=O)c2cccc([N+](=O)[O-])c2)C(=O)c2ccccc2C1=O | 92 | 76 | 100 | 91 | 94 | 106
37 | CCCCc1c(C)nc2c(OC)cccc2c1O | 0 | 52 | 43 | 17 | 74 | 46
38 | COc1ccc(C)c2sc(N(Cc3cccnc3)C(=O)c3ccc(C#N)cc3)nc12 | -7 | 24 | -1 | -6 | 13 | -39
39 | Cc1cc(N2CCN(C3CCCC3)CC2)n2c(nc3ccccc32)c1C#N | 35 | 44 | 48 | -24 | 35 | -3
